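Growth conditions: 96-well plates. Treatment: test compound, 48 hours, 5 concentrations. Analysis: linear interpolation between bracketing concentrations; unreached endpoints set to highest concentration. At the GI50, growth is halved.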 Calls of active or inactive are those of the source. Rule as the data show it: active = GI50 up to about 1.1 µM and inactive = higher.
Key:
Assay in all cases: growth of human tumour cells (NCI), 48 h
RXF 631 = system: RXF 631
DMS-114 = system: DMS-114
KM-20L2 = system: KM-20L2
XF498 = system: XF498
SNB-78 = system: SNB-78
LXFL 529 = system: LXFL 529
M19-MEL = system: M19-MEL
HOP-18 = system: HOP-18
DMS-273 = system: DMS-273

Structure (SMILES) | GI50 (RXF 631) | GI50 (DMS-114) | GI50 (KM-20L2) | GI50 (XF498) | GI50 (SNB-78) | GI50 (LXFL 529) | GI50 (M19-MEL) | GI50 (HOP-18) | GI50 (DMS-273)
CCOC(=O)NC(=O)c1cn(CCN2CCN(C(=O)CCCCCCCCCCNc3ncnc4c3ncn4C3OC(CO)C(O)C3O)CC2)c(=O)[nH]c1=O (centres undefined) | > 100 µM (inactive) | > 100 µM (inactive) | > 100 µM (inactive) | > 100 µM (inactive) | > 100 µM (inactive) | > 100 µM (inactive) | – | – | –
COc1cc(C(=O)Nc2cccc3ccccc23)c(Br)c(OC)c1OC | > 100 µM (inactive) | 30.7 µM (inactive) | > 100 µM (inactive) | – | – | 31.1 µM (inactive) | 58.6 µM (inactive) | 4.33 µM (inactive) | –
COC(=O)/C(=N\NC(N)=S)C(C(=O)OC)C(=O)C(=O)Nc1ccc(C)cc1 (centres undefined) | > 100 µM (inactive) | > 100 µM (inactive) | > 100 µM (inactive) | > 100 µM (inactive) | > 100 µM (inactive) | > 100 µM (inactive) | > 100 µM (inactive) | > 100 µM (inactive) | > 100 µM (inactive)
CC1=NN(C(=O)c2ccc(Cl)cc2)C(=O)/C1=C/c1ccc(Cl)cc1 | – | > 100 µM (inactive) | > 100 µM (inactive) | > 100 µM (inactive) | 40.8 µM (inactive) | > 100 µM (inactive) | > 100 µM (inactive) | – | –
CC(=O)NNc1nc(C)c(C(/C=C/c2ccc(Cl)cc2)=N/NC(=S)NN)s1 | > 100 µM (inactive) | > 100 µM (inactive) | > 100 µM (inactive) | > 100 µM (inactive) | > 100 µM (inactive) | > 100 µM (inactive) | > 100 µM (inactive) | > 100 µM (inactive) | > 100 µM (inactive)
CC(Oc1ccc(OCC2CCCCC2)cc1)C(=O)NCCO (centres undefined) | – | 39.8 µM (inactive) | – | – | > 100 µM (inactive) | > 100 µM (inactive) | > 100 µM (inactive) | > 100 µM (inactive) | > 100 µM (inactive)
CC1=NN(C(=O)c2ccccc2O)C(=O)/C1=C/c1cccc([N+](=O)[O-])c1 | – | 1.66 µM (inactive) | 15.6 µM (inactive) | – | > 100 µM (inactive) | 0.451 µM (active) | – | – | –
COC(=O)c1cc(C)c(C)c2c1NC(=O)CNC2=O | – | > 100 µM (inactive) | > 100 µM (inactive) | > 100 µM (inactive) | > 100 µM (inactive) | > 100 µM (inactive) | > 100 µM (inactive) | – | > 100 µM (inactive)
O=c1c2cccc3cccc(c4n1CCCN=4)c32 | > 100 µM (inactive) | > 100 µM (inactive) | > 100 µM (inactive) | > 100 µM (inactive) | > 100 µM (inactive) | > 100 µM (inactive) | > 100 µM (inactive) | > 100 µM (inactive) | > 100 µM (inactive)
COc1ccc([C@@H]2CC(=O)N2)cc1 | – | > 100 µM (inactive) | > 100 µM (inactive) | > 100 µM (inactive) | > 100 µM (inactive) | > 100 µM (inactive) | – | > 100 µM (inactive) | > 100 µM (inactive)
CC1OC(=O)N(CCCC=C2SCCCS2)C1=O (centres undefined) | – | > 100 µM (inactive) | > 100 µM (inactive) | > 100 µM (inactive) | > 100 µM (inactive) | > 100 µM (inactive) | > 100 µM (inactive) | > 100 µM (inactive) | > 100 µM (inactive)
CC(=O)C1=CSC2[C@H](NC(=O)Cc3ccccc3)C(=O)N2C1C(=O)OC(c1ccccc1)c1ccccc1 (some centres undefined) | > 100 µM (inactive) | 84.3 µM (inactive) | – | > 100 µM (inactive) | > 100 µM (inactive) | > 100 µM (inactive) | 96.4 µM (inactive) | – | 67.9 µM (inactive)
CC(C)=Cc1cc(C(=O)NCCNC(=O)c2cc(C=C(C)C)nc(NC#N)n2)nc(NC#N)n1 | – | > 100 µM (inactive) | > 100 µM (inactive) | > 100 µM (inactive) | – | > 100 µM (inactive) | > 100 µM (inactive) | > 100 µM (inactive) | –
Cn1c2c(c3ccccc31)CCN(CCCN1CCN(c3cccc(Cl)c3)CC1)C2=O | 24.7 µM (inactive) | 14.2 µM (inactive) | 2.87 µM (inactive) | 10.4 µM (inactive) | – | 16.2 µM (inactive) | 20.2 µM (inactive) | 22.9 µM (inactive) | 24.1 µM (inactive)
CC(C)C(Sc1nc(-c2ccccc2)c(-c2ccccc2)[nH]1)C(=O)NN (centres undefined) | – | 99.8 µM (inactive) | > 100 µM (inactive) | 72.8 µM (inactive) | > 100 µM (inactive) | > 100 µM (inactive) | > 100 µM (inactive) | – | > 100 µM (inactive)
O=C1CCN(CCC(F)(F)C(F)(F)C(F)(F)C(F)(F)F)C(=S)N1 | – | > 100 µM (inactive) | > 100 µM (inactive) | > 100 µM (inactive) | > 100 µM (inactive) | > 100 µM (inactive) | > 100 µM (inactive) | – | > 100 µM (inactive)
CSc1nc2nc(C(O)C(O)C(O)CO)cnc2c(=O)[nH]1 (centres undefined) | – | > 100 µM (inactive) | > 100 µM (inactive) | > 100 µM (inactive) | > 100 µM (inactive) | > 100 µM (inactive) | > 100 µM (inactive) | – | > 100 µM (inactive)
CCN(CC)CCNC(=O)c1cccc2nc3ccccc3nc12 | – | 7.85 µM (inactive) | 13.6 µM (inactive) | – | 21.4 µM (inactive) | 16.9 µM (inactive) | – | > 26.4 µM (inactive) | 7.26 µM (inactive)
OCCCCn1cnc2c(O)ncnc21 | – | > 100 µM (inactive) | > 100 µM (inactive) | – | > 100 µM (inactive) | > 100 µM (inactive) | > 100 µM (inactive) | > 100 µM (inactive) | –
O=C(CCc1n[nH]c(=S)o1)Nc1ccccc1C(F)(F)F | > 100 µM (inactive) | > 100 µM (inactive) | > 100 µM (inactive) | – | > 100 µM (inactive) | > 100 µM (inactive) | > 100 µM (inactive) | > 100 µM (inactive) | > 100 µM (inactive)
Cc1[nH]nc2c1C(=O)C=C(N(CCO)c1ccccc1)C2=O | – | > 100 µM (inactive) | – | – | > 100 µM (inactive) | > 100 µM (inactive) | > 100 µM (inactive) | > 100 µM (inactive) | > 100 µM (inactive)
COc1cc(C(=O)O)cc2c1[nH]c1ccccc12 [MUKOEIC ACID] | – | > 25 µM (inactive) | > 25 µM (inactive) | – | > 25 µM (inactive) | > 25 µM (inactive) | > 25 µM (inactive) | – | > 25 µM (inactive)
CC(=O)OC1CCCn2c1nc1c2C(=O)C(C)=C(N2CC2)C1=O (centres undefined) | – | 0.771 µM (active) | 0.45 µM (active) | 0.234 µM (active) | 0.454 µM (active) | 0.614 µM (active) | 0.392 µM (active) | 0.348 µM (active) | 0.15 µM (active)
C=CCCc1cc(OC)ccc1CN(C)C(C)(C)CO | – | > 100 µM (inactive) | > 100 µM (inactive) | – | > 100 µM (inactive) | – | > 100 µM (inactive) | > 100 µM (inactive) | > 100 µM (inactive)
C=C(C)[C@@H]1CC=C(CO)CC1 [PERILLYL ALCOHOL] | 565 µM (inactive) | 124 µM (inactive) | 265 µM (inactive) | 123 µM (inactive) | 200 µM (inactive) | 668 µM (inactive) | 182 µM (inactive) | – | –
CN(C)CC1CCC(CN(C)C)C(=O)C1=O (centres undefined) | – | 6.62 µM (inactive) | 16.4 µM (inactive) | 2.54 µM (inactive) | – | 1.67 µM (inactive) | 19 µM (inactive) | 1.5 µM (inactive) | 15.8 µM (inactive)
